Measurements reported in US6472348B1, “Pyridone derivatives and herbicides” (Kumiai Chemical Industry Co., Ltd., priority 1996, dated 2002).

Experiments:
bulrush (Sc) = test: Test Example 1: herbicidal effects by paddy field soil treatment; type: in vivo; conditions: 100 g of the active ingredient per 10 ares, 21st day after the application, index 0-5 of Table 47;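 also: grade of growth control; 5 = at least 90%; 4 = 70 to 90%; 3 = 50 to 70%; 2 = 30 to 50%; 1 = 10 to 30%; 0 = under 10%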
Summary of the method: (§1)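 Greenhouse pot test in flooded paddy soil, dosed at 100 g a.i. per 10 ares; effect scored on day 21.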

barnyardgrass (Ec) [1] = test: as above; type: in vivo; conditions: 100 g of the active ingredient per 10 ares, 21st day after the application, index 0-5 of Table 47
Summary of the method: as §1

monochoria (Mo) = test: as above; type: in vivo; conditions: 100 g of the active ingredient per 10 ares, 21st day after the application, index 0-5 of Table 47;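 also: grade of growth control; 5 = at least 90%; 4 = 70 to 90%; 3 = 50 to 70%; 2 = 30 to 50%; 1 = 10 to 30%; 0 = under 10%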
Summary of the method: as §1

slender amaranth (Am) [2] = test: Test Example 2: herbicidal effects by upland field soil treatment; type: in vivo; conditions: 100 g of the active ingredient per 10 ares;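 also: grade of growth control; 5 = at least 90%; 4 = 70 to 90%; 3 = 50 to 70%; 2 = 30 to 50%; 1 = 10 to 30%; 0 = under 10%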
Excerpt: (§2) (Test on Herbicidal Effects by Upland Field Soil Treatment)

barnyardgrass (Ec) [3] = test: as above; type: in vivo; conditions: 100 g of the active ingredient per 10 ares
Excerpt: as §2

[4] = tested on: common lambsquarters (Ch); test: as above; type: in vivo; conditions: 100 g of the active ingredient per 10 ares
Excerpt: as §2

pale smartweed (Po) [5] = test: as above; type: in vivo; conditions: 100 g of the active ingredient per 10 ares
Excerpt: as §2

Digitaria ciliaris (Di) = test: as above; type: in vivo; conditions: 100 g of the active ingredient per 10 ares;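 also: grade of growth control; 5 = at least 90%; 4 = 70 to 90%; 3 = 50 to 70%; 2 = 30 to 50%; 1 = 10 to 30%; 0 = under 10%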
Excerpt: as §2

rice flatsedge (Ci) [6] = test: as above; type: in vivo; conditions: 100 g of the active ingredient per 10 ares
Excerpt: as §2

corn (Ze) [7] = test: Test Example 11: crop plant selectivity by upland field foliage treatment (corn), phytotoxicity; conditions: upland field foliage treatment, dose 1.6 g ai/10a, 14th day after treatment
Description: (§3) (Test on Crop Plant Selectivity by Upland Field Foliage Treatment)
(§4) In a plastic pot (surface area: 600 cm^2) filled with sand, corn (Ze), pale smartweed (Po), slender amaranth (Am), common lambsquarters (Ch) and China jute (Ab) were sown and cultured in a green house for 2 weeks. […] The plants were then cultured in a green house, and the evaluation of the herbicidal effects and phytotoxicity was conducted on the 14th day after the treatment in accordance with the standards as identified in Table 47.

slender amaranth (Am) [8] = test: Test Example 3: herbicidal effects by upland field foliage treatment; type: in vivo; parameters: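 grade of growth control; 5 = at least 90%; 4 = 70 to 90%; 3 = 50 to 70%; 2 = 30 to 50%; 1 = 10 to 30%; 0 = under 10%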; conditions: 100 g of the active ingredient per 10 ares, evaluated on the 14th day after treatment
Summary of the method: (§5)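 Seeds → sand pot (120 cm^2) → soil cover → greenhouse 2 wk → foliar treatment → greenhouse → herbicidal score at 14 d post-treatment against graded standards.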

barnyardgrass (Ec) [9] = test: as above; type: in vivo; parameters: scale not given here; conditions: 100 g of the active ingredient per 10 ares, evaluated on the 14th day after treatment
Summary of the method: as §5

[10] = tested on: common lambsquarters (Ch); test: as above; type: in vivo; parameters: scale not given here; conditions: 100 g of the active ingredient per 10 ares, evaluated on the 14th day after treatment
Summary of the method: as §5

pale smartweed (Po) [11] = test: as above; type: in vivo; parameters: scale not given here; conditions: 100 g of the active ingredient per 10 ares, evaluated on the 14th day after treatment
Summary of the method: as §5

rice flatsedge (Ci) [12] = test: as above; type: in vivo; parameters: scale not given here; conditions: 100 g of the active ingredient per 10 ares, evaluated on the 14th day after treatment
Summary of the method: as §5

Diaitaria ciliaris (Di) = test: as above; type: in vivo; parameters: scale not given here; conditions: 100 g of the active ingredient per 10 ares, evaluated on the 14th day after treatment
Summary of the method: as §5

slender amaranth (Am) [13] = test: Test Example 11: crop plant selectivity by upland field foliage treatment (corn), herbicidal effects; type: in vivo; parameters: scale not given here; conditions: upland field foliage treatment (corn test), dose 1.6 g ai/10a, 14th day after treatment
Description: as §3, §4

[14] = tested on: common lambsquarters (Ch); test: as above; type: in vivo; parameters: scale not given here; conditions: upland field foliage treatment (corn test), dose 1.6 g ai/10a, 14th day after treatment
Description: as §3, §4

pale smartweed (Po) [15] = test: as above; type: in vivo; parameters: scale not given here; conditions: upland field foliage treatment (corn test), dose 1.6 g ai/10a, 14th day after treatment
Description: as §3, §4

China jute (Ab) [16] = test: as above; type: in vivo; parameters: scale not given here; conditions: upland field foliage treatment (corn test), dose 1.6 g ai/10a, 14th day after treatment
Description: as §3, §4

wheat (Tr) = test: Test Example 5: crop plant selectivity by upland field soil treatment (wheat), phytotoxicity; type: in vivo; parameters: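 grade of crop injury; 5 = at least 90%; 4 = 70 to 90%; 3 = 50 to 70%; 2 = 30 to 50%; 1 = 10 to 30%; 0 = under 10%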; conditions: dose 6.3 g ai/10a, 21st day after application
Summary of the method: (§6)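 A greenhouse pot test in which wheat and weeds share sand-filled pots; after the soil application, damage is graded against set standards three weeks later.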

soybean (Gl) = test: Test Example 6: crop plant selectivity by upland field soil treatment (soybean), phytotoxicity; type: in vivo; parameters: scale not given here; conditions: dose 6.3 g ai/10a, 21st day after application
Summary of the method: (§7)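 Pre-emergence soil treatment; sand-filled pots, seeds sown then soil-covered; greenhouse culture; visual rating of weed control and soybean injury on day 21 post-application per standard scale.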

slender amaranth (Am) [17] = test: Test Example 5: crop plant selectivity by upland field soil treatment (wheat), herbicidal effects; type: in vivo; parameters: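 grade of growth control; 5 = at least 90%; 4 = 70 to 90%; 3 = 50 to 70%; 2 = 30 to 50%; 1 = 10 to 30%; 0 = under 10%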; conditions: dose 6.3 g ai/10a, 21st day after application
Summary of the method: as §6

[18] = tested on: common lambsquarters (Ch); test: as above; type: in vivo; parameters: scale not given here; conditions: dose 6.3 g ai/10a, 21st day after application
Summary of the method: as §6

pale smartweed (Po) [19] = test: as above; type: in vivo; parameters: scale not given here; conditions: dose 6.3 g ai/10a, 21st day after application
Summary of the method: as §6

China jute (Ab) [20] = test: as above; type: in vivo; parameters: scale not given here; conditions: dose 6.3 g ai/10a, 21st day after application
Summary of the method: as §6

green foxtail (Se) [21] = test: as above; type: in vivo; parameters: scale not given here; conditions: dose 6.3 g ai/10a, 21st day after application
Summary of the method: as §6

slender amaranth (Am) [22] = test: Test Example 4: crop plant selectivity by upland field soil treatment (cotton), herbicidal effects; type: in vivo; parameters: scale not given here; conditions: dose 6.3 g ai/10 a, evaluated 21st day after application
Summary of the method: (§8)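 Cotton is sown alongside weeds in pots of sand, covered with soil, and the soil surface is treated. After greenhouse growth, herbicidal activity and phytotoxicity are graded on the 21st day.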

[23] = tested on: common lambsquarters (Ch); test: as above; type: in vivo; parameters: scale not given here; conditions: dose 6.3 g ai/10 a, evaluated 21st day after application
Summary of the method: as §8

pale smartweed (Po) [24] = test: as above; type: in vivo; parameters: scale not given here; conditions: dose 6.3 g ai/10 a, evaluated 21st day after application
Summary of the method: as §8

China jute (Ab) [25] = test: as above; type: in vivo; parameters: scale not given here; conditions: dose 6.3 g ai/10 a, evaluated 21st day after application
Summary of the method: as §8

green foxtail (Se) [26] = test: as above; type: in vivo; parameters: scale not given here; conditions: dose 6.3 g ai/10 a, evaluated 21st day after application
Summary of the method: as §8

corn (Ze) [27] = test: Test Example 7: crop plant selectivity by upland field soil treatment (corn), phytotoxicity; type: in vivo; parameters: scale not given here; conditions: dose 6.3 g ai/10a, 21st day after application
Summary of the method: (§9)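 Scoring of weed kill and corn injury was done on day 21 after the application, using defined standards. Before that, sown seeds in sand-filled pots were covered with soil, treated, and grown in a greenhouse.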

cotton (Go) = test: Test Example 4: crop plant selectivity by upland field soil treatment (cotton), phytotoxicity; type: in vivo; parameters: scale not given here; conditions: dose 6.3 g ai/10 a, evaluated 21st day after application
Summary of the method: as §8

slender amaranth (Am) [28] = test: Test Example 7: crop plant selectivity by upland field soil treatment (corn), herbicidal effects; type: in vivo; parameters: scale not given here; conditions: dose 6.3 g ai/10a, 21st day after application
Summary of the method: as §9

[29] = tested on: common lambsquarters (Ch); test: as above; type: in vivo; parameters: scale not given here; conditions: dose 6.3 g ai/10a, 21st day after application
Summary of the method: as §9

pale smartweed (Po) [30] = test: as above; type: in vivo; parameters: scale not given here; conditions: dose 6.3 g ai/10a, 21st day after application
Summary of the method: as §9

China jute (Ab) [31] = test: as above; type: in vivo; parameters: scale not given here; conditions: dose 6.3 g ai/10a, 21st day after application
Summary of the method: as §9

green foxtail (Se) [32] = test: as above; type: in vivo; parameters: scale not given here; conditions: dose 6.3 g ai/10a, 21st day after application
Summary of the method: as §9

slender amaranth (Am) [33] = test: Test Example 6: crop plant selectivity by upland field soil treatment (soybean), herbicidal effects; type: in vivo; parameters: scale not given here; conditions: dose 6.3 g ai/10a, 21st day after application
Summary of the method: as §7

[34] = tested on: common lambsquarters (Ch); test: as above; type: in vivo; parameters: scale not given here; conditions: dose 6.3 g ai/10a, 21st day after application
Summary of the method: as §7

pale smartweed (Po) [35] = test: as above; type: in vivo; parameters: scale not given here; conditions: dose 6.3 g ai/10a, 21st day after application
Summary of the method: as §7

China jute (Ab) [36] = test: as above; type: in vivo; parameters: scale not given here; conditions: dose 6.3 g ai/10a, 21st day after application
Summary of the method: as §7

green foxtail (Se) [37] = test: as above; type: in vivo; parameters: scale not given here; conditions: dose 6.3 g ai/10a, 21st day after application
Summary of the method: as §7

[38] = 21st day after the application, index 0-5 of Table 47
[39] = evaluated on the 21st day after application

CC(C)OC(=O)c1cc(-c2ccc(C(F)(F)F)n(C)c2=O)c(F)cc1Cl [Compound No. 1-66, isopropyl 5-(1-methyl-6-trifluoromethyl-2(1H)-pyridon-3-yl)-2-chloro-4-fluorobenzoate]
Herbicidal effects Sc (bulrush (Sc)): 5 | Herbicidal effects Ec (barnyardgrass (Ec) [1]): 5 | Herbicidal effects Mo (monochoria (Mo)): 5 | Herbicidal effects Am (slender amaranth (Am) [2]; [38]): 5 | Herbicidal effects Ec (barnyardgrass (Ec) [3]; [38]): 5 | Herbicidal effects Ch [4, 38]: 5 | Herbicidal effects Po (pale smartweed (Po) [5]; [38]): 5 | Herbicidal effects Di (Digitaria ciliaris (Di); [38]): 5 | Herbicidal effects Ci (rice flatsedge (Ci) [6]; [38]): 5 | Phytotoxicity Ze (corn (Ze) [7]): 2 | Herbicidal effects Am (slender amaranth (Am) [8]): 5 | Herbicidal effects Ec (barnyardgrass (Ec) [9]): 5 | Herbicidal effects Ch [10]: 5 | Herbicidal effects Po (pale smartweed (Po) [11]): 5 | Herbicidal effects Ci (rice flatsedge (Ci) [12]): 5 | Herbicidal effects Di (Diaitaria ciliaris (Di)): 5 | Herbicidal effects Am (slender amaranth (Am) [13]): 5 | Herbicidal effects Ch [14]: 5 | Herbicidal effects Po (pale smartweed (Po) [15]): 5 | Herbicidal effects Ab (China jute (Ab) [16]): 5

Cn1c(C(F)(F)F)ccc(-c2cc(OCC(F)F)c(Cl)cc2F)c1=O [1-173]
Phytotoxicity Tr (wheat (Tr)): 1 | Herbicidal effects Sc (bulrush (Sc)): 5 | Herbicidal effects Ec (barnyardgrass (Ec) [1]): 5 | Herbicidal effects Mo (monochoria (Mo)): 5 | Herbicidal effects Am (slender amaranth (Am) [2]; [39]): 5 | Herbicidal effects Ec (barnyardgrass (Ec) [3]; [39]): 5 | Herbicidal effects Ch [4, 39]: 5 | Herbicidal effects Po (pale smartweed (Po) [5]; [39]): 5 | Herbicidal effects Di (Digitaria ciliaris (Di); [39]): 5 | Herbicidal effects Ci (rice flatsedge (Ci) [6]; [39]): 5 | Phytotoxicity Gl (soybean (Gl)): 1 | Herbicidal effects Am (slender amaranth (Am) [17]): 5 | Herbicidal effects Ch [18]: 5 | Herbicidal effects Po (pale smartweed (Po) [19]): 5 | Herbicidal effects Ab (China jute (Ab) [20]): 5 | Herbicidal effects Se (green foxtail (Se) [21]): 5 | Herbicidal effects Am (slender amaranth (Am) [22]): 5 | Herbicidal effects Ch [23]: 5 | Herbicidal effects Po (pale smartweed (Po) [24]): 5 | Herbicidal effects Ab (China jute (Ab) [25]): 5 | Herbicidal effects Se (green foxtail (Se) [26]): 5 | Phytotoxicity Ze (corn (Ze) [27]): 1 | Herbicidal effects Am (slender amaranth (Am) [8]): 5 | Herbicidal effects Ec (barnyardgrass (Ec) [9]): 5 | Herbicidal effects Ch [10]: 5 | Herbicidal effects Po (pale smartweed (Po) [11]): 5 | Herbicidal effects Ci (rice flatsedge (Ci) [12]): 5 | Herbicidal effects Di (Diaitaria ciliaris (Di)): 5 | Phytotoxicity Go (cotton (Go)): 1 | Herbicidal effects Am (slender amaranth (Am) [28]): 5 | Herbicidal effects Ch [29]: 5 | Herbicidal effects Po (pale smartweed (Po) [30]): 5 | Herbicidal effects Ab (China jute (Ab) [31]): 5 | Herbicidal effects Se (green foxtail (Se) [32]): 5 | Herbicidal effects Am (slender amaranth (Am) [33]): 5 | Herbicidal effects Ch [34]: 5 | Herbicidal effects Po (pale smartweed (Po) [35]): 5 | Herbicidal effects Ab (China jute (Ab) [36]): 5 | Herbicidal effects Se (green foxtail (Se) [37]): 5
